ChEMBL document CHEMBL2385027, “Evaluation of 2'-α-fluorine modified nucleoside phosphonates as potential inhibitors of HCV polymerase” (Bioorg Med Chem Lett, 2013)

How the values were obtained:
Hepatitis C virus [1] = experiment: Inhibition of HCV 1b NS5b polymerase; set-up: species or system Hepatitis C virus subtype 1b
[2] = Cytotoxicity against human HuH7 cells; format: cell-based, Huh-7
[3] = Cytostatic activity against human MT4 cells; format: cell-based
Hepatitis C virus [4] = experiment: Antiviral activity against Hepatitis C virus infected in human Huh7 cells assessed as inhibition of HCV replication; format: functional, organism-based, Hepacivirus hominis; conditions: Huh-7

Row | EC50 (Hepatitis C virus [4]) | Structure (SMILES) | IC50 (Hepatitis C virus [1]) | CC50 [2] | CC50 [3]
1 |  | Nc1ccn([C@@H]2O[C@H](CO)[C@@H](O)[C@H]2F)c(=O)n1 | 1.85 µM |  | 
2 | 11 µM | CCCCOC(=O)[C@H](C)NP(=O)(CC[C@H]1O[C@@H](n2cnc3c(N)ncnc32)[C@H](F)[C@@H]1O)N[C@@H](C)C(=O)OCCCC |  | 24 µM | 36 µM
3 | 134 µM | CCCCOC(=O)[C@H](C)NP(=O)(/C=C/[C@H]1O[C@@H](n2ccc(N)nc2=O)[C@H](F)[C@@H]1O)N[C@@H](C)C(=O)OCCCC |  | > 250 µM | > 250 µM
4 |  | O=c1ccn([C@@H]2O[C@H](CO)[C@@H](O)[C@H]2F)c(=O)[nH]1 | 12.8 µM |  | 
5 | 134 µM | Nc1ncnc2c1ncn2[C@@H]1O[C@H](COP(=O)(O)O)[C@@H](O)[C@H]1F |  | > 250 µM | 
6 | 14.5 µM | CCCCOC(=O)[C@H](C)NP(=O)(/C=C/[C@H]1O[C@@H](n2ccc(=O)[nH]c2=O)[C@H](F)[C@@H]1O)N[C@@H](C)C(=O)OCCCC |  | > 250 µM | 92 µM
7 |  | O=c1ccn([C@@H]2O[C@H](/C=C/P(=O)(O)O)[C@@H](O)[C@H]2F)c(=O)[nH]1 [listing 1 of 2 here] | 31 µM |  | 
8 |  | Nc1ccn([C@@H]2O[C@H](/C=C/P(=O)(O)O)[C@@H](O)[C@H]2F)c(=O)n1 [listing 2 of 2 here] | 1.9 µM |  | 
9 |  | Nc1ncnc2c1ncn2[C@@H]1O[C@H](CO)[C@@H](O)[C@H]1F [2'-BETA-FLUORO-2',3'-DEOXYADENOSINE] | 102 µM |  | 
10 |  | Nc1ncnc2c1ncn2[C@@H]1O[C@H](CCP(=O)(O)O)[C@@H](O)[C@H]1F [listing 2 of 2 here] | 4.6 µM |  | 
11 | > 250 µM | O=c1ccn([C@@H]2O[C@H](COP(=O)(O)O)[C@@H](O)[C@H]2F)c(=O)[nH]1 |  | > 250 µM | 
12 | 58 µM | CCCCOC(=O)[C@H](C)NP(=O)(/C=C/[C@H]1O[C@@H](n2cnc3c(N)ncnc32)[C@H](F)[C@@H]1O)N[C@@H](C)C(=O)OCCCC |  | 113 µM | 18 µM
13 |  | Nc1ncnc2c1ncn2[C@@H]1O[C@H](/C=C/P(=O)(O)O)[C@@H](O)[C@H]1F [listing 2 of 2 here] | 2.1 µM |  | 
14 | 15 µM | Nc1ccn([C@@H]2O[C@H](COP(=O)(O)O)[C@@H](O)[C@H]2F)c(=O)n1 |  | > 250 µM | 

Row | Structure (SMILES) | EC50 (Hepatitis C virus [4]) | IC50 (Hepatitis C virus [1]) | CC50 [2] | CC50 [3]
15 | Nc1ncnc2c1ncn2[C@@H]1O[C@H](/C=C/P(=O)(O)O)[C@@H](O)[C@H]1F [listing 1 of 2 here] | 132 µM |  | > 250 µM | 
16 | Nc1ncnc2c1ncn2[C@@H]1O[C@H](CCP(=O)(O)O)[C@@H](O)[C@H]1F [listing 1 of 2 here] | > 500 µM |  | > 500 µM | 
17 | Nc1ccn([C@@H]2O[C@H](/C=C/P(=O)(O)O)[C@@H](O)[C@H]2F)c(=O)n1 [listing 1 of 2 here] | 76 µM |  | > 250 µM | 
18 | O=c1ccn([C@@H]2O[C@H](/C=C/P(=O)(O)O)[C@@H](O)[C@H]2F)c(=O)[nH]1 [listing 2 of 2 here] | > 250 µM |  | > 250 µM | 
